Structures are written as SMILES.

The first series can be described thus: Log P by HPLC on reversed phase columns (EEC directive 79/831 Annex V.A8). In kind it is physicochemical. Particulars: method [a]. The protocol:
In the above tables, measurement of Log P values was performed according to EEC directive 79/831 Annex V.A8 by HPLC (High Performance Liquid Chromatography) on reversed phase columns with the following methods: • ^[a] Log P value is determined by measurement of LC-UV, in an acidic range, with 0.1% formic acid in water and acetonitrile as eluent (linear gradient from 10% acetonitrile to 95% acetonitrile). • ^[b] Log P value is determined by measurement of LC-UV, in a neutral range, with 0.001 molar ammonium acetate solution in water and acetonitrile as eluent (linear gradient from 10% acetonitrile to 95% acetonitrile). • ^[c] Log P value is determined by measurement of LC-UV, in an acidic range, with 0.1% phosphoric acid and acetonitrile as eluent (linear gradient from 10% acetonitrile to 95% acetonitrile). If more than one Log P value is available within the same method, all the values are given and separated by “+”. Calibration was done with straight-chain alkan2-ones (with 3 to 16 carbon atoms) with known Log P values (measurement of Log P values using retention times with linear interpolation between successive alkanones). Lambda-max-values were determined using UV-spectra from 200 nm to 400 nm and the peak values of the chromatographic signals.
Regarding `CC(C)(C)OC(=O)C(NC(=O)c1sc(Br)c(Br)c1F)C1CC1` (racemic) [1.0921], the LogP was 4.89^[a]. Still for that read-out and setting: as for `O=C(NC(C(=O)OC1CCC1)C1CC1)c1sc(Br)c(Br)c1F` (racemic) [1.0922], the figure is 4.59^[a]. Still for that read-out and setting: as for `CC(C)OC(=O)C(NC(=O)c1sc(Br)c(Br)c1F)C1CC1` (racemic) [1.0923], the figure is 4.40^[a].

The series is the same for the next values; noted with them: method [a]; compounds of formula (I), Table 1.1.
For the molecule `C=CC1CC1(NC(=O)c1sc(Br)c(Br)c1F)C(=O)OC` (mixture of isomers) [1.0008], the LogP is 3.37^[a]. On the same count and under the same terms, the figure for `CCOC(=O)C(NC(=O)c1cc(C)c(Cl)s1)C(C)C` (racemic) [1.0002] is 3.48^[a]; for `CCOC(=O)C(NC(=O)c1cc(F)c(Br)s1)C(C)C` (racemic) [1.0003] it is 3.46^[a]; for `COC(=O)C(CC(F)F)NC(=O)c1cc(F)c(Br)s1` (racemic) [1.0004] it is 2.68^[a]. Consider `CSCCC(NC(=O)c1cc(Br)c(Cl)s1)C(=O)O` (racemic) [1.0005], for which the LogP is 2.58^[a]. On to `COC(=O)C1(NC(=O)c2sc(Br)c(Br)c2F)CCOC1` (racemic) [1.0009], for which the LogP is 2.76^[a]. With `CCOC(=O)C(CO)NC(=O)c1sc(Br)c(Br)c1F` (racemic) [1.0012], the LogP is 2.51^[a].

For the molecule `CCSC(=O)C(CC(C)C)NC(=O)c1sc(Br)c(Br)c1F` (racemic) [1.0013], the LogP was 5.05^[a]. Still for that read-out and setting: the figure for `CCSC(=O)C(NC(=O)c1sc(Br)c(Br)c1F)C(C)C` (racemic) [1.0014] is 4.87^[a]; for `CCOC(=O)C(CO)NC(=O)c1sc(Cl)c(Br)c1C` (racemic) [1.0019] it is 2.54^[a].

Regarding `CCSC(=O)C(CC(C)C)NC(=O)c1sc(Cl)c(Br)c1C` (racemic) [1.0020], the LogP is 5.03^[a]. Consider `CCSC(=O)C(NC(=O)c1sc(Cl)c(Br)c1C)C(C)C` (racemic) [1.0021], for which the LogP is 4.74^[a]. On the same count and under the same terms, the figure for `CCOC(=O)C(NC(=O)c1sc(C#N)c(Br)c1C)C(C)C` (racemic) [1.0027] is 3.52^[a]. The same measure, in the same setting: as for `CCOC(=O)C(Cc1ccccc1)NC(=O)c1sc(C#N)c(Br)c1C` (racemic) [1.0028], the figure is 3.74^[a]; as for `CCOC(=O)C(Cc1ccccc1)NC(=O)c1cc(Br)c(Cl)s1` (racemic) [1.0029], 4.06^[a]; as for `CCOC(=O)C(Cc1ccccc1)NC(=O)c1cc(F)c(Br)s1` (racemic) [1.0030], 3.69^[a]. Same read-out and setting: the figure for `CCOC(=O)C(Cc1ccccc1)NC(=O)c1cc(C)c(Cl)s1` (racemic) [1.0031] is 3.73^[a]; for `CCOC(=O)CNC(=O)c1sc(C)c(Br)c1F` [1.0001] it is 2.69^[a]. As for `COC(=O)C1(NC(=O)c2sc(Br)c(Br)c2F)CCC(F)(F)CC1` [1.0010], the LogP is 3.74^[a]. Consider `CCOC(=O)C1(NC(=O)c2sc(Br)c(Br)c2F)CCOCC1` [1.0011], for which the LogP was 3.13^[a]. Turning to `O=C(CNC(=O)c1sc(Br)c(Br)c1F)SCc1ccccc1` [1.0015], the LogP was 4.15^[a]. Regarding `O=C(CNC(=O)c1sc(Br)c(Br)c1F)Sc1ccccc1` [1.0016], the LogP is 3.89^[a]. Still for that read-out and setting: the figure for `CCOC(=O)C1(NC(=O)c2sc(Cl)c(Br)c2C)CCOCC1` [1.0018] is 3.15^[a]; for `Cc1c(C(=O)NCC(=O)SCc2ccccc2)sc(Cl)c1Br` [1.0022] it is 4.37^[a].

Regarding `CCOC(=O)CNC(=O)c1sc(C#N)c(Br)c1C` [1.0024], the LogP is 2.46^[a].

`CCOC(=O)CCNC(=O)c1sc(C#N)c(Br)c1C` [1.0025]: the LogP was 2.52^[a]. Still for that read-out and setting: the figure for `CCOC(=O)C1(NC(=O)c2sc(C#N)c(Br)c2C)CC1` [1.0026] is 2.58^[a]; for `COC(=O)CC1(NC(=O)c2sc(Cl)c(Br)c2C)CC1` [1.0032] it is 3.04^[a]. Consider `CCOC(=O)C1(CNC(=O)c2sc(Cl)c(Br)c2C)CC1` [1.0033], for which the LogP is 3.79^[a].

For the molecule `CCOC(=O)C1(NC(=O)c2sc(Cl)c(Br)c2C)COC1` [1.0034], the LogP was 2.88^[a]. Consider `COC(=O)C1(NC(=O)c2sc(Cl)c(Br)c2C)CSC1` [1.0035], for which the LogP is 3.29^[a]. Still for that read-out and setting: as for `CCOC(=O)C(CC(N)=O)NC(=O)c1sc(Cl)c(Br)c1C` (centres unmarked) [1.0036], the figure is 2.25^[a]; as for `CCOC(=O)C(CC(F)(F)F)NC(=O)c1sc(Cl)c(Br)c1C` (centres unmarked) [1.0038], 3.99^[a]. Same read-out and setting: as for `CCOC(=O)C1(CNC(=O)c2sc(Br)c(Cl)c2C)CC1` [1.0040], the figure is 3.75^[a]; as for `CCOC(=O)C1(NC(=O)c2sc(Br)c(Cl)c2C)COC1` [1.0041], 2.84^[a].

With `COC(=O)C1(NC(=O)c2sc(Br)c(Cl)c2C)CSC1` [1.0042], the LogP was 3.25^[a]. Same read-out and setting: as for `CCOC(=O)C(CC(N)=O)NC(=O)c1sc(Br)c(Cl)c1C` (centres unmarked) [1.0043], the figure is 2.22^[a]; as for `CCOC(=O)C(CC(F)(F)F)NC(=O)c1sc(Br)c(Cl)c1C` (centres unmarked) [1.0045], 3.94^[a]; as for `CCOC(=O)C1(NC(=O)c2sc(Br)c(Br)c2F)COC1` [1.0046], 2.77^[a]. Same read-out and setting: the figure for `COC(=O)C1(NC(=O)c2sc(Br)c(Br)c2F)CSC1` [1.0047] is 3.19^[a]; for `CCOC(=O)C(CC(N)=O)NC(=O)c1sc(Br)c(Br)c1F` (centres unmarked) [1.0048] it is 2.17^[a]. Regarding `CCOC(=O)C(CC(F)(F)F)NC(=O)c1sc(Br)c(Br)c1F` (centres unmarked) [1.0050], the LogP was 3.88^[a]. Same read-out and setting: the figure for `CCOC(=O)C(Cc1ccccc1)NC(=O)c1sc(Br)c(Br)c1F` (centres unmarked) [1.0051] is 4.55^[a]; for `CCOC(=O)CNC(=O)c1cc(Br)c(C#N)s1` [1.0052] it is 2.16^[a]. `CCOC(=O)C1(NC(=O)c2cc(Br)c(C#N)s2)CC1` [1.0053]: the LogP was 2.45^[a]. The same measure, in the same setting: the figure for `CCOC(=O)C(NC(=O)c1cc(Br)c(C#N)s1)C(C)C` (centres unmarked) [1.0054] is 3.27^[a].

Turning to `CCOC(=O)C(Cc1ccccc1)NC(=O)c1cc(Br)c(C#N)s1` (centres unmarked) [1.0055], the LogP is 3.50^[a]. As to `CCOC(=O)CNC(=S)c1sc(Cl)c(Cl)c1Br` [1.0059], the LogP is 4.61^[a]. Still for that read-out and setting: as for `CCOC(=O)C(CC(C)C)NC(=O)c1sc(Br)c(Br)c1F` (centres unmarked) [1.0062], the figure is 4.67^[a]; as for `CCOC(=O)CNC(=O)c1sc(Cl)c(Br)c1C` [1.0063], 2.98^[a]; as for `CCOC(=O)CCNC(=O)c1sc(Cl)c(Br)c1C` [1.0064], 3.15^[a]. Turning to `CCOC(=O)C1(NC(=O)c2sc(Cl)c(Br)c2C)CC1` [1.0065], the LogP is 3.17^[a]. In the case of `CCOC(=O)C1(NC(=O)c2sc(Cl)c(Br)c2C)CCC1` [1.0066], the LogP is 3.71^[a]. Same read-out and setting: as for `CCOC(=O)C(NC(=O)c1sc(Cl)c(Br)c1C)C(C)C` (centres unmarked) [1.0067], the figure is 4.30^[a]; as for `COC(=O)C(CC(F)F)NC(=O)c1sc(Cl)c(Br)c1C` (centres unmarked) [1.0068], 3.33^[a].

Take `CCOC(=O)C(CC(C)C)NC(=O)c1sc(Cl)c(Br)c1C` (centres unmarked) [1.0069]: the LogP was 4.58^[a]. The same measure, in the same setting: the figure for `CCOC(=O)C(CCSC)NC(=O)c1sc(Cl)c(Br)c1C` (centres unmarked) [1.0070] is 3.99^[a]. Still for that read-out and setting: the figure for `CCOC(=O)C(Cc1ccccc1)NC(=O)c1sc(Cl)c(Br)c1C` (centres unmarked) [1.0071] is 4.51^[a]; for `CCOC(=O)CNC(=O)c1sc(Br)c(Cl)c1C` [1.0072] it is 2.94^[a]; for `CCOC(=O)CCNC(=O)c1sc(Br)c(Cl)c1C` [1.0073] it is 3.11^[a]. Same read-out and setting: the figure for `CCOC(=O)C1(NC(=O)c2sc(Br)c(Cl)c2C)CC1` [1.0074] is 3.13^[a]; for `CCOC(=O)C1(NC(=O)c2sc(Br)c(Cl)c2C)CCC1` [1.0075] it is 3.67^[a]; for `CCOC(=O)C(NC(=O)c1sc(Br)c(Cl)c1C)C(C)C` (centres unmarked) [1.0076] it is 4.25^[a]. Regarding `COC(=O)C(CC(F)F)NC(=O)c1sc(Br)c(Cl)c1C` (centres unmarked) [1.0077], the LogP is 3.29^[a]. Turning to `CCOC(=O)C(CC(C)C)NC(=O)c1sc(Br)c(Cl)c1C` (centres unmarked) [1.0078], the LogP is 4.53^[a].

Still in this series, the particulars now being: method marker [a] given with each value; Table 1.1, compounds of formula (I).
For the molecule `COC(=O)C(Cc1ccc(Cl)cc1)NC(=O)c1sc(Br)c(Br)c1Cl` (racemic) [1.0940], the LogP is 4.95^[a]. The same measure, in the same setting: as for `COC(=O)C(C)(Cc1ccccc1)NC(=O)c1sc(Br)c(Br)c1Cl` (racemic) [1.0941], the figure is 5.12^[a]; as for `COC(=O)C(NC(=O)c1sc(Br)c(Br)c1Cl)c1cccs1` (racemic) [1.0942], 4.25^[a]; as for `CCOC(=O)C(NC(=O)c1sc(Br)c(Br)c1Cl)C(F)(F)F` (racemic) [1.0943], 4.50^[a]. Turning to `CCOC(=O)C(NC(=O)c1sc(Cl)c(Cl)c1Br)C(F)(F)F` (racemic) [1.0946], the LogP was 4.52^[a]. Consider `COC(=O)C(NC(=O)c1sc(Cl)c(Cl)c1Br)c1cccs1` (racemic) [1.0947], for which the LogP is 4.26^[a]. In the case of `COC(=O)C(C)(Cc1ccccc1)NC(=O)c1sc(Cl)c(Cl)c1Br` (racemic) [1.0948], the LogP was 5.15^[a]. Take `CCOC(=O)C(NC(=O)c1sc(Br)c(Br)c1F)C(F)(F)F` (racemic) [1.0952]: the LogP is 4.08^[a]. On the same count and under the same terms, the figure for `COC(=O)C(NC(=O)c1sc(Br)c(Br)c1F)c1cccs1` (racemic) [1.0953] is 3.84^[a].

Values taken from US12642270B2, “Substituted thiophene carboxamides, thiophene carboxylic acids and derivatives thereof” (Bayer Aktiengesellschaft, priority 2019, dated 2026).
